Data: PMC5434891, “Tetramethylpyrazine blocks TFAM degradation and up-regulates mitochondrial DNA copy number by interacting with TFAM” (Bioscience Reports, 2017)

Legend:
[1] = molecular target: T1, TFAM (mitochondrial transcription factor A) (Homo sapiens, UniProt Q00059); assay: streptavidin-sepharose pull-down from cell extracts, immunoblot ([…]); format: cell-based
T1 construct: endogenous TFAM in HeLa ρ+ and HCT116 cell extracts
T1 sequence (Q00059 43-246): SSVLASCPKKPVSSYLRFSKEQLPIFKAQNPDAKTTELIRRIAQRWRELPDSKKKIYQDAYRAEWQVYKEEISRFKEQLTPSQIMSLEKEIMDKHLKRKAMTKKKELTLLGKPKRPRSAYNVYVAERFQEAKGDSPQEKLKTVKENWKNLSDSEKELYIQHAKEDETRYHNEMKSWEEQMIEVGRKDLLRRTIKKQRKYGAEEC

[2] = molecular target: T2, Lon (human mitochondrial Lon protease) (Homo sapiens, UniProt P36776); assay: ADP-Glo ATPase assay with purified Lon; about […] activity left at […]; format: biochemical
T2 construct: gene LONP1
T2 sequence (P36776 68-959): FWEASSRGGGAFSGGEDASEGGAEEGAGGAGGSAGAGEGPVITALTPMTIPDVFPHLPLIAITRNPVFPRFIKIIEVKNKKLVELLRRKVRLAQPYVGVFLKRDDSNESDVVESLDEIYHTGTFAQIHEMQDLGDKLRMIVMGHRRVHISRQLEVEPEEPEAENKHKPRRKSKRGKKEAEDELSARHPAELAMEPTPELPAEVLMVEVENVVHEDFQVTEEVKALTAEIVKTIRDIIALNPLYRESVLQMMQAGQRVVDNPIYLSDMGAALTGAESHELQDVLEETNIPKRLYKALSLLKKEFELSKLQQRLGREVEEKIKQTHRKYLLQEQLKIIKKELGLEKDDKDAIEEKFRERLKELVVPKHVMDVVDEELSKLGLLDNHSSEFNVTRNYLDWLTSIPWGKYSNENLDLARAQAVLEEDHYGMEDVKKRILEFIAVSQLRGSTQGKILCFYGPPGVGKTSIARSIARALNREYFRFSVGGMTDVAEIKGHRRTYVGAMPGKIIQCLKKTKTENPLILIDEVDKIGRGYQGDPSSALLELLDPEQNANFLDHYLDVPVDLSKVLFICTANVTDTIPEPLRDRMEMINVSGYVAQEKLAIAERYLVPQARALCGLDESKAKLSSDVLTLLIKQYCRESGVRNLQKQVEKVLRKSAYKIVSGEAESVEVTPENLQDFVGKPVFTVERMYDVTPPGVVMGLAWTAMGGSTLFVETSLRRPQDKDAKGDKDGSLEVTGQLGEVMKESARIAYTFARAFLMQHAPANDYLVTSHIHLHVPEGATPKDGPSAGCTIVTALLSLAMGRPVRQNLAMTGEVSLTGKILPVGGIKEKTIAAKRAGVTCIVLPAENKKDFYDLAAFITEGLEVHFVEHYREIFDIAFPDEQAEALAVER

[3] = molecular target: T3, TFAM (mitochondrial transcription factor A) (Homo sapiens, UniProt Q00059); assay: protection of purified TFAM from degradation by purified Lon (Western blot); binding itself shown only with the biotinylated conjugate; format: biochemical
T3 sequence (Q00059 43-246): T1 sequence (Q00059 43-246)
T3 sequence (P36776 68-959 partner): T2 sequence (P36776 68-959)

## Cc1nc(C)c(COC(=O)CCCC[C@@H]2SC[C@@H]3NC(=O)N[C@@H]32)nc1C [biotinylated TMP]
[1]
  streptavidin-sepharose pull-down from cell extracts, immunoblot (10 μM): TFAM was specifically pulled down only in complexes containing biotinylated-TMP and SA-sepharose

## CC1(C)CC[C@]2(C(=O)O)CC[C@]3(C)[C@H](C(=O)C=C4[C@@]5(C)C=C(C#N)C(=O)C(C)(C)[C@@H]5CC[C@]43C)[C@@H]2C1 [CDDO, 2-cyano-3,12-dioxooleana-1,9(11)-dien-28-oic acid]
[2]
  ADP-Glo ATPase assay with purified Lon; about 10% activity left at 200 μM: CDDO inhibited the ATPase activity of Lon in a dose-dependent manner

## Cc1nc(C)c(C)nc1C [TMP, 2,3,5,6-tetramethylpyrazine]
[3]
  protection of purified TFAM from degradation by purified Lon (Western blot); bin: ~ 20 mM
